In article PMC10180076, “Novel Biologically Active N-Substituted Benzimidazole Derived Schiff Bases: Design, Synthesis, and Biological Evaluation” (Molecules, 2023):

What was measured:
[1] = tested on: sindbis virus; assay: Antiviral CPE reduction assay, Sindbis virus in Huh-7; format: cell-based; details: Huh-7 cells, 100 CCID50, MTS
[2] = tested on: influenza B (B/Ned/537/05); assay: Antiviral CPE reduction assay, influenza B in MDCK; format: cell-based; details: Influenza B virus; MDCK cells, 100 CCID50, MTS
[3] = in vitro; details: dog
[4] = tested on: Zika virus (Mr776); assay: Antiviral CPE reduction assay, Zika virus in Huh-7; format: cell-based; details: Huh-7 cells, 100 CCID50, MTS
[5] = tested on: herpes simplex virus-1 (HSV-1 KOS); assay: Antiviral CPE reduction assay, HSV-1 KOS in HEL 299; format: cell-based; details: Human alphaherpesvirus 1; HEL 299 cells, 100 CCID50, MTS
[6] = tested on: influenza A/H3N2 (A/HK/7/87); assay: Antiviral CPE reduction assay, influenza A/H3N2 in MDCK; format: cell-based; details: Influenza A virus, MDCK cells, 100 CCID50, MTS
[7] = tested on: respiratory syncytial virus A (Long); assay: Antiviral CPE reduction assay, RSV A in HEL 299; format: cell-based; details: human respiratory syncytial virus; HEL 299 cells, 100 CCID50, MTS
[8] = tested on: influenza A/H1N1 (A/Ned/378/05); assay: Antiviral CPE reduction assay, influenza A/H1N1 in MDCK; format: cell-based; details: Influenza A virus, MDCK cells, 100 CCID50, MTS
[9] = in vitro; details: human
[10] = tested on: human coronavirus HCoV-229E; assay: organism not typed; format: cell-based; details: HEL 299 cells, 100 CCID50, MTS; read-out: Antiviral Activity (EC50/μM) HCoV 229E HEL 299
[11] = tested on: human coronavirus HCoV-NL63; assay: Antiviral CPE reduction assay, HCoV-NL63 in Huh-7; format: cell-based; details: Huh-7 cells, 100 CCID50, MTS
[12] = tested on: yellow fever virus (YFV 17D); assay: microbe, parasite or virus in culture; format: cell-based; details: Huh-7, read-out: Antiviral Activity (EC50/μM) YFV 17D Huh-7
[13] = tested on: human coronavirus HCoV-OC43; assay: microbe, parasite or virus in culture; format: cell-based; details: Betacoronavirus 1, OC43; HEL 299 cells, 100 CCID50, MTS; read-out: Antiviral Activity (EC50/μM) HCoV OC43 HEL 299
[14] = in vitro; details: human; remark: listed apart in the source
[15] = tested on: NCI-H460, lung carcinoma; assay: Proliferation assay (MTS, 72 h), NCI-H460; format: cell-based, human; details: Homo sapiens, NCI-H460
Description: (§1) Human cancer cells used in this manuscript, namely Capan-1, HCT-116, NCI-H460, LN-229, HL-60, K-562, and Z-138, were acquired from the American Type Culture Collection (ATCC, Manassas, VA, USA), while the DND-41 cell line was purchased from the Deutsche Sammlung von Mikroorganismen und Zellkulturen (DSMZ Leibniz-Institut, Braunschweig, Germany). Culture media were purchased from Gibco Life Technologies, Merelbeke, Belgium, and supplemented with 10% fetal bovine serum (HyClone, Cytiva, Marlborough, MA, USA). Vincristine and docetaxel, which were used as the reference inhibitors, were purchased from Selleckchem (Munich, Germany). Stock solutions were prepared in DMSO.
(§2) Adherent cell lines LN-229, HCT-116, and NCI-H460 and Capan-1 cells were seeded at a density between 500 and 1500 cells per well, in 384-well tissue culture plates (Greiner, Kremsmünster, Austria). After overnight incubation, the cells were treated with seven different concentrations of the test compounds, ranging from 100 to 0.006 µM.
(§3) Suspension cell lines HL-60, K-562, Z-138, and DND-41 were seeded at densities ranging from 2500 to 5500 cells per well in 384-well culture plates containing the test compounds at the same concentration points. The cells were incubated for 72 h with the compounds and were then analyzed using the CellTiter 96® AQueous One Solution Cell Proliferation Assay (MTS) reagent (Promega, Madison, WI, USA) according to the manufacturer’s instructions. […] The compounds were tested in two independent experiments.

[16] = tested on: HCT-116, colorectal carcinoma; assay: Proliferation assay (MTS, 72 h), HCT-116; format: cell-based, human; details: Homo sapiens, HCT-116
Description: as §1, §2, §3

[17] = tested on: Z-138, non-Hodgkin lymphoma; assay: Proliferation assay (MTS, 72 h), Z-138; format: cell-based, human; details: Homo sapiens, Z-138
Description: as §1, §2, §3

[18] = tested on: K-562, chronic myeloid leukemia; assay: Proliferation assay (MTS, 72 h), K-562; format: cell-based, human; details: Homo sapiens, K562
Description: as §1, §2, §3

[19] = tested on: DND-41, acute lymphoblastic leukemia; assay: Proliferation assay (MTS, 72 h), DND-41; format: cell-based, human; details: Homo sapiens, DND41
Description: as §1, §2, §3

[20] = tested on: Capan-1, pancreatic adenocarcinoma; assay: Proliferation assay (MTS, 72 h), Capan-1; format: cell-based, human; details: Homo sapiens, CAPAN-1
Description: as §1, §2, §3

[21] = tested on: HL-60, acute myeloid leukemia; assay: Proliferation assay (MTS, 72 h), HL-60; format: cell-based, human; details: Homo sapiens, HL-60
Description: as §1, §2, §3

[22] = tested on: LN-229, glioblastoma; assay: Proliferation assay (MTS, 72 h), LN-229; format: cell-based, human; details: Homo sapiens, LN-229
Description: as §1, §2, §3

SMILES	EC50 [1] [µM]	EC50 [2] [µM]	CC50 [3] [µM]	EC50 [4] [µM]	EC50 [5] [µM]	EC50 [6] [µM]	EC50 [7] [µM]	EC50 [8] [µM]	CC50 [9] [µM]	EC50 [10] [µM]	EC50 [11] [µM]	EC50 [12] [µM]	EC50 [13] [µM]	CC50 [14] [µM]	IC50 [15] [µM]	IC50 [16] [µM]	IC50 [17] [µM]	IC50 [18] [µM]	IC50 [19] [µM]	melting point [°C]	other results
Cn1c(N)nc2ccccc21 [Compound 18, 2-amino-1-methylbenzimidazole]	> 100	> 100	> 100	43.1	> 100	> 100	> 100	> 100	> 100	> 100	> 100	> 100	> 100	> 100	–	–	–	–	–	–	–
Cn1c(N)nc2ccc(C#N)cc21 [Compound 22, 2-amino-6-cyano-1-methylbenzimidazole]	> 100	> 100	> 100	46.4	> 100	> 100	78.7	> 100	> 100	> 100	> 100	> 100	> 100	> 100	–	–	–	–	–	–	–
CC(C)Cn1c(/N=C/c2ccc(N(C)C)cc2)nc2ccc(C#N)cc21 [Compound 29, (E)-2-((4-(Dimethylamino)benzylidene)amino)-1-isobutyl-1H-benzo[d]imidazole-6-carbonitrile]	> 100	> 100	> 100	> 100	> 100	> 100	> 100	94.1	> 100	> 100	79.8	> 100	> 100	> 100	> 100	> 100	> 100	> 100	> 100	283 to 285	IC50 [20]: > 100 µM; IC50 [21]: 42.8 µM; IC50 [22]: > 100 µM
CC(C)Cn1c(/N=C/c2ccc([N+](=O)[O-])cc2)nc2ccc(C#N)cc21 [Compound 32, (E)-1-Isobutyl-2-((4-nitrobenzylidene)amino)-1H-benzo[d]imidazole-6-carbonitrile]	> 100	> 100	> 100	> 100	> 100	> 100	> 100	> 100	90.1	38.5	> 100	> 100	68.7	> 100	> 100	> 100	> 100	> 100	> 100	277 to 279	IC50 [20]: > 100 µM; IC50 [21]: > 100 µM; IC50 [22]: > 100 µM
